This is an account of results in ChEMBL document CHEMBL5512659, “Structure optimizing of flavonoids against both MRSA and VRE” (Eur J Med Chem, 2024).

≈ marks a conversion by molar mass, not a printed value. Calls of active or inactive are those of the source. The calls are words filed in the database; no cut-off is given here.

The test system of the first experiment is Enterococcus faecalis. The experiment can be described thus: Bactericidal activity against multidrug resistant Enterococcus faecalis ATCC 51299 assessed as inhibition of bacterial growth by measuring ratio of MBC to MIC.
Settings: not given
The experiment is classed as functional.
For the molecule `CCCCCCc1c(-c2ccc(OCCCCN(C)C)cc2OCCCCN(C)C)oc2cc(OC)cc(O)c2c1=O`, the Ratio is listed as less than 4.

In a further experiment the test system is Enterococcus faecalis. In words: Antibacterial activity in multidrug resistant Enterococcus faecalis ATCC 51299 at sub-MIC measured after 20 passages. The experiment is classed as functional, organism-based.
Settings: not given
`CCCCCCc1c(-c2ccc(OCCCCN(C)C)cc2OCCCCN(C)C)oc2cc(OC)cc(O)c2c1=O`: the outcome was Active.

The test system of a further experiment is Cell membrane. In words: Induction of cell membrane damage in methicillin resistant Staphylococcus aureus clinical isolate 003 assessed as increase in green fluorescence at 2 to 4 times MIC by SYTOX Green dye based analysis. Format: cell membranes.
Settings: not given
In the case of `CCCCCCc1c(-c2ccc(OCCCCN(C)C)cc2OCCCCN(C)C)oc2cc(OC)cc(O)c2c1=O`, the result was Active.

Another experiment has as its system Staphylococcus aureus. In words: Antibacterial activity against methicillin-resistant Staphylococcus aureus clinical isolate 003 at 2 to 4 times MIC measured after 8 to 12 hrs by time-kill assay. Particulars: time 8-12 hrs. The experiment is classed as functional, organism-based.
As for `CCCCCCc1c(-c2ccc(OCCCCN(C)C)cc2OCCCCN(C)C)oc2cc(OC)cc(O)c2c1=O`, the result was Active.

A further experiment deals with Cell membrane. In words: Induction of membrane depolarization in multidrug resistant Enterococcus faecalis ATCC 51299 assessed as increase in fluorescence intensity at 2 to 4 times MIC by DiSC3(5) dye based analysis.
Settings: not given
For `CCCCCCc1c(-c2ccc(OCCCCN(C)C)cc2OCCCCN(C)C)oc2cc(OC)cc(O)c2c1=O`, the Activity entry is “Dose-Dependent Effect”.

For another experiment, the system named is Staphylococcus aureus. The experiment can be described thus: Antibacterial activity against methicillin resistant Staphylococcus aureus clinical isolate 031. The experiment is classed as functional.
Settings: not given
As a reminder, the MIC is the lowest concentration found to suppress growth. In turn, `CCCCCCc1c(-c2ccc(OCCCCN(C)C)cc2OCCCCN(C)C)oc2cc(OC)cc(O)c2c1=O` showed a minimum inhibitory concentration (MIC) of 1 µg/mL (≈ 1.72 µM).

A further experiment deals with Cell membrane. In words: Induction of cell membrane damage in multidrug resistant Enterococcus faecalis ATCC 51299 assessed as bacterial death at 2 to 4 times MIC by confocal laser scanning microscopy.
Settings: not given
Format: cell membranes.
For `CCCCCCc1c(-c2ccc(OCCCCN(C)C)cc2OCCCCN(C)C)oc2cc(OC)cc(O)c2c1=O`, the result was Active.

Another experiment deals with Cell membrane. The experiment can be described thus: Induction of membrane depolarization in methicillin resistant Staphylococcus aureus clinical isolate 003 assessed as increase in fluorescence intensity at 2 to 4 times MIC by DiSC3(5) dye based analysis.
Settings: not given
In the case of `CCCCCCc1c(-c2ccc(OCCCCN(C)C)cc2OCCCCN(C)C)oc2cc(OC)cc(O)c2c1=O`, the Activity result was “Dose-Dependent Effect”.

In the next experiment the test system is Staphylococcus aureus. The experiment can be described thus: Antibiofilm activity in methicillin resistant Staphylococcus aureus clinical isolate 003 assessed as inhibition of biofilm formation at 4 times MIC by crystal violet staining based analysis relative to control. The experiment is classed as functional.
Settings: not given
For `CCCCCCc1c(-c2ccc(OCCCCN(C)C)cc2OCCCCN(C)C)oc2cc(OC)cc(O)c2c1=O`, the “inhibition (INH)” value is more than 90%.

Another experiment relates to Cell membrane. In words: Disruption of membrane permeability in methicillin resistant Staphylococcus aureus clinical isolate 003 assessed as increase in malondialdehyde level.
Settings: not given
As to `CCCCCCc1c(-c2ccc(OCCCCN(C)C)cc2OCCCCN(C)C)oc2cc(OC)cc(O)c2c1=O`, the outcome was Active.

A further experiment deals with Staphylococcus aureus. The experiment can be described thus: Antibacterial activity against Staphylococcus aureus clinical isolate 31. The experiment is classed as functional.
Settings: not given
`CCCCCCc1c(-c2ccc(OCCCCN(C)C)cc2OCCCCN(C)C)oc2cc(OC)cc(O)c2c1=O` had an MIC of 1 µg/mL (≈ 1.72 µM).

Another experiment has as its system Cell membrane. In words: Disruption of membrane permeability in multidrug resistant Enterococcus faecalis ATCC 51299 assessed as protein leakage at 2 to 4 times MIC. Format: cell membranes.
Settings: not given
Consider `CCCCCCc1c(-c2ccc(OCCCCN(C)C)cc2OCCCCN(C)C)oc2cc(OC)cc(O)c2c1=O`, for which the result was Active.

For another experiment, the system named is Cell membrane. The experiment can be described thus: Induction of membrane damage in methicillin resistant Staphylococcus aureus clinical isolate 003 assessed as deformation of bacterial surface at 2 to 4 times MIC by SEM analysis. The experiment is classed as cell membranes.
Settings: not given
For the molecule `CCCCCCc1c(-c2ccc(OCCCCN(C)C)cc2OCCCCN(C)C)oc2cc(OC)cc(O)c2c1=O`, the outcome was Active.

The subject of the next experiment is Enterococcus faecalis. The experiment can be described thus: Antibiofilm activity in multidrug resistant Enterococcus faecalis ATCC 51299 assessed as reduction in biofilm density at 0.5 to 4 times MIC measured after 24 hrs by inverted fluorescence microscopic analysis. The experiment is classed as functional, organism-based.
Settings: not given
Regarding `CCCCCCc1c(-c2ccc(OCCCCN(C)C)cc2OCCCCN(C)C)oc2cc(OC)cc(O)c2c1=O`, the Activity entry was “Dose-Dependent Effect”.

The next experiment deals with Enterococcus faecalis. The experiment can be described thus: Antibiofilm activity in multidrug resistant Enterococcus faecalis ATCC 51299 assessed as destruction of biofilm integrity at 0.5 to 4 times MIC measured after 24 hrs by inverted fluorescence microscopic analysis. Format: functional, organism-based.
Settings: not given
Take `CCCCCCc1c(-c2ccc(OCCCCN(C)C)cc2OCCCCN(C)C)oc2cc(OC)cc(O)c2c1=O`: the Activity result was “Dose-Dependent Effect”.

For a further experiment, the system named is Staphylococcus aureus. The experiment can be described thus: Antibiofilm activity in methicillin resistant Staphylococcus aureus clinical isolate 003 assessed as biofilm clearance rate at 4 times MIC by crystal violet staining based analysis relative to control. Format: functional.
Settings: not given
`CCCCCCc1c(-c2ccc(OCCCCN(C)C)cc2OCCCCN(C)C)oc2cc(OC)cc(O)c2c1=O`: the Activity was approximately 80%.

In the next experiment the test system is Staphylococcus aureus. In words: Antibiofilm activity in methicillin resistant Staphylococcus aureus clinical isolate 003 assessed as biofilm clearance at 0.5 to 4 times MIC by crystal violet staining based analysis. The experiment is classed as functional, organism-based.
Settings: not given
In the case of `CCCCCCc1c(-c2ccc(OCCCCN(C)C)cc2OCCCCN(C)C)oc2cc(OC)cc(O)c2c1=O`, the Activity result is “Dose-Dependent Effect”.

The test system of a further experiment is Staphylococcus aureus. In words: Antibiofilm activity in methicillin resistant Staphylococcus aureus clinical isolate 003 assessed as reduction in biofilm density at 0.5 to 4 times MIC measured after 24 hrs by inverted fluorescence microscopic analysis. Format: functional, organism-based.
Settings: not given
For the molecule `CCCCCCc1c(-c2ccc(OCCCCN(C)C)cc2OCCCCN(C)C)oc2cc(OC)cc(O)c2c1=O`, the Activity entry was “Dose-Dependent Effect”.

A further experiment relates to Cell membrane. The experiment can be described thus: Disruption of membrane permeability in methicillin resistant Staphylococcus aureus clinical isolate 003 assessed as protein leakage at 2 to 4 times MIC.
Settings: not given
Take `CCCCCCc1c(-c2ccc(OCCCCN(C)C)cc2OCCCCN(C)C)oc2cc(OC)cc(O)c2c1=O`: the result was Active.

In the next experiment the test system is Cell membrane. The experiment can be described thus: Induction of cell membrane damage in methicillin resistant Staphylococcus aureus clinical isolate 003 assessed as bacterial death at 2 to 4 times MIC by confocal laser scanning microscopy. The experiment is classed as cell membranes.
Settings: not given
Consider `CCCCCCc1c(-c2ccc(OCCCCN(C)C)cc2OCCCCN(C)C)oc2cc(OC)cc(O)c2c1=O`, for which the result was Active.

In the next experiment the test system is Staphylococcus aureus. In words: Antibacterial activity against methicillin resistant Staphylococcus aureus clinical isolate 003 in presence of phosphatidylglycerol. Format: functional, organism-based.
Settings: not given
As to `CCCCCCc1c(-c2ccc(OCCCCN(C)C)cc2OCCCCN(C)C)oc2cc(OC)cc(O)c2c1=O`, the result was inactive.

A further experiment deals with Staphylococcus aureus. The experiment can be described thus: Antibacterial activity against methicillin resistant Staphylococcus aureus clinical isolate 003 in presence of peptidoglycan. The experiment is classed as functional, organism-based.
Settings: not given
Consider `CCCCCCc1c(-c2ccc(OCCCCN(C)C)cc2OCCCCN(C)C)oc2cc(OC)cc(O)c2c1=O`, for which the result was Active.
